# Reference: patent US9393221B2, “Methods and compounds for reducing intracellular lipid storage” (THE GENERAL HOSPITAL CORPORATION, priority 2011, dated 2016)
# Structures can show the parent of a compound that is named as a salt.
# Tested on: ATGL-KO iPSCs
# Assay: High throughput iPSC chemical screening, Oil Red O (ORO) lipid accumulation; as to Z-score: test concentration or dose not given here
# Format: cell-based, mouse
# Conditions: not given
row,Structure (SMILES),Z-score
1,CCN(CC)CCCC(C)Nc1ccnc2cc(Cl)ccc12 (stereo not drawn) [Chloroquine diphosphate],0.8301

# Same assay, conditions: glycolytic switch compounds
row,Structure (SMILES),Rank in normalized ORO score from screen
1,CC(=O)Oc1ccc(C(c2ccc(OC(C)=O)cc2)c2ccccn2)cc1 [Bisacodyl],791
2,CCCCOC(=O)c1ccc(O)cc1 [Butylparaben],23

# Same assay, conditions: normalized ORO level vs DMSO-treated cells; compound present during 7 days differentiation, 96-well; negative = decrease in lipid accumulation
row,Structure (SMILES),Z-score
1,CC(=O)Oc1ccc(C(c2ccc(OC(C)=O)cc2)c2ccccn2)cc1 [Bisacodyl],0.477
2,CC(C)NCC(O)COc1ccc(COCCOC(C)C)cc1 (stereo not drawn) [Bisoprolol fumarate],0.03425
3,COc1cc2c(cc1O)C[C@H]1c3c(cc(O)c(OC)c3-2)CCN1C [Boldine],−0.6389
4,CC[N+](C)(C)Cc1ccccc1Br [Bretylium tosylate],1.9055
5,CCN[C@H]1CN(CCCOC)S(=O)(=O)c2sc(S(N)(=O)=O)cc21 [Brinzolamide],−0.419
6,CCN(CC)CCNC(=O)c1cc(Br)c(N)cc1OC [Bromopride],0.9486
7,O=C(CCCN1CCC(O)(c2ccc(Br)cc2)CC1)c1ccc(F)cc1 [Bromperidol],−0.6428
8,CN(C)CCC(c1ccc(Br)cc1)c1ccccn1 (stereo not drawn) [Brompheniramine maleate],1.885
9,CCCC(=O)Nc1ncnc2c1ncn2[C@@H]1O[C@@H]2COP(=O)(O)O[C@H]2[C@H]1OC(=O)CCC [Bucladesine sodium salt],−0.9927
10,CCCC1O[C@@H]2C[C@H]3[C@@H]4CCC5=CC(=O)C=C[C@]5(C)[C@H]4[C@@H](O)C[C@]3(C)[C@]2(C(=O)CO)O1 (stereo partly drawn) [Budesonide],19.1411
11,CCCCOc1ccc(CC(=O)NO)cc1 [Bufexamac],0.678
12,COc1cc(OC)c(C(=O)CCCN2CCCC2)c(OC)c1 [Buflomedil hydrochloride],−0.0451
13,CCCCNc1cc(C(=O)O)cc(S(N)(=O)=O)c1Oc1ccccc1 [Bumetanide],−1.3983
14,CCCCN1CCCCC1C(=O)Nc1c(C)cccc1C (stereo not drawn) [Bupivacaine hydrochloride],0.0187
15,CC(NC(C)(C)C)C(=O)c1cccc(Cl)c1 (stereo not drawn) [Bupropion hydrochloride],0.7193
16,O=C1CC2(CCCC2)CC(=O)N1CCCCN1CCN(c2ncccn2)CC1 [Buspirone hydrochloride],−0.0845
17,CCCCN(CCCC)CCCOC(=O)c1ccc(N)cc1 [Butacaine],−0.9284
18,CCCCOC(=O)c1ccc(N)cc1 [Butamben],0.2903
19,Clc1ccc(CCC(Cn2ccnc2)Sc2c(Cl)cccc2Cl)cc1 (stereo not drawn) [Butoconazole nitrate],−0.4077
20,CCCCOC(=O)c1ccc(O)cc1 [Butylparaben],−1.7629
21,O=C(O)/C=C/c1ccc(O)c(O)c1 [Caffeic acid],−1.7446
22,C=C1CC[C@H](O)C/C1=C/C=C1\CCC[C@]2(C)[C@@H]([C@H](C)/C=C/[C@H](C)C(C)C)CC[C@@H]12 [Calciferol],0.2582
23,CN1CC[C@]23c4ccccc4N[C@H]1[C@]21CCN(C)[C@H]3Nc2ccccc21 [Calycanthine],−0.8381
24,"CC[C@@]1(O)C(=O)OCc2c1cc1n(c2=O)Cc2cc3ccccc3nc2-1 [Camptothecine (S,+)]",21.8871

row,Structure (SMILES),Z-score
1,"NC(N)=NOCC[C@H](N)C(=O)O.O.O=S(=O)(O)O [Canavanine sulfate monohydrate (L,+)]",−0.5687
2,C[C@]12CCC(=O)C=C1C=C[C@@H]1[C@@H]2CC[C@@]2(C)[C@H]1CC[C@@]2(O)CCC(=O)O [Canrenoic acid potassium salt],−0.274
3,C[C@@]12C(=O)OC(=O)[C@]1(C)[C@H]1CC[C@@H]2O1 [Cantharidin],18.9862
4,COc1cc(CNC(=O)CCCC/C=C/C(C)C)ccc1O [Capsaicin],0.3383
5,C[C@H](CS)C(=O)N1CCC[C@H]1C(=O)O [Captopril],−0.2654
6,C[N+](C)(C)CCOC(N)=O [Carbachol],0.7384
7,NC(=O)N1c2ccccc2C=Cc2ccccc21 [Carbamazepine],0.2892
8,CC1(C)[C@@H](OC(=O)CCC(=O)O)CC[C@]2(C)[C@H]3C(=O)C=C4[C@@H]5C[C@@](C)(C(=O)O)CC[C@]5(C)CC[C@@]4(C)[C@]3(C)CC[C@@H]12 [Carbenoxolone disodium salt],−1.2656
9,CCN(CC)CCOCCOC(=O)C1(c2ccccc2)CCCC1 [Carbetapentane citrate],1.581
10,CCOC(=O)n1ccn(C)c1=S [Carbimazole],−0.836
11,NCCC(=O)NCCc1c[nH]cn1 [Carcinine],0.6838
12,CCCC(C)(COC(N)=O)COC(=O)NC(C)C (stereo not drawn) [Carisoprodol],0.5591
13,CC(C)(C)NCC(O)COc1cccc2c1CCC(=O)N2 (stereo not drawn) [Carteolol hydrochloride],−0.6876
14,N[C@@H](C(=O)N[C@@H]1C(=O)N2C(C(=O)O)=C(Cl)CS[C@H]12)c1ccccc1 [Cefaclor],−0.5619
15,CC1=C(C(=O)O)N2C(=O)[C@@H](NC(=O)[C@H](N)c3ccc(O)cc3)[C@H]2SC1 [Cefadroxil],−0.5419
16,NC(=O)c1cc[n+](CC2=C(C(=O)[O-])N3C(=O)[C@@H](NC(=O)Cc4cccs4)[C@H]3SC2)cc1 [Cefalonium],−0.8363
17,Cn1nnnc1SCC1=C(C(=O)O)N2C(=O)[C@@H](NC(=O)[C@H](O)c3ccccc3)[C@H]2SC1 [Cefamandole sodium salt],−0.5703
18,Cc1nnc(SCC2=C(C(=O)O)N3C(=O)[C@@H](NC(=O)Cn4cnnn4)[C@H]3SC2)s1 [Cefazolin sodium salt],−0.8698
19,CO/N=C(\C(=O)N[C@@H]1C(=O)N2C(C(=O)O)=C(C[N+]3(C)CCCC3)CS[C@H]12)c1csc(N)n1 [Cefepime hydrochloride],1.172
20,C=CC1=C(C(=O)O)N2C(=O)[C@@H](NC(=O)/C(=N\OCC(=O)O)c3csc(N)n3)[C@H]2SC1 [Cefixime],1.521
21,CO[C@@]1(NC(=O)CSCC#N)C(=O)N2C(C(=O)O)=C(CSc3nnnn3C)CS[C@@H]21 [Cefmetazole sodium salt],−0.8537
22,CCN1CCN(C(=O)N[C@@H](C(=O)N[C@@H]2C(=O)N3C(C(=O)O)=C(CSc4nnnn4C)CS[C@H]23)c2ccc(O)cc2)C(=O)C1=O [Cefoperazone dihydrate],0.4847
23,NCc1ccccc1CC(=O)N[C@@H]1C(=O)N2C(C(=O)O)=C(CSc3nnnn3CC(=O)O)CS[C@H]12 [Ceforanide],1.929
24,CO/N=C(\C(=O)N[C@@H]1C(=O)N2C(C(=O)O)=C(COC(C)=O)CS[C@H]12)c1csc(N)n1 [Cefotaxime sodium salt],−0.8289

row,Structure (SMILES),Z-score
1,CO[C@@]1(NC(=O)C2SC(=C(C(N)=O)C(=O)O)S2)C(=O)N2C(C(=O)O)=C(CSc3nnnn3C)CS[C@@H]21 (stereo partly drawn) [Cefotetan],2.584
2,CN(C)CCn1nnnc1SCC1=C(C(=O)O)N2C(=O)[C@@H](NC(=O)Cc3csc(N)n3)[C@H]2SC1 [Cefotiam hydrochloride],−0.8453
3,CO[C@@]1(NC(=O)Cc2cccs2)C(=O)N2C(C(=O)O)=C(COC(N)=O)CS[C@@H]21 [Cefoxitin sodium salt],−1.629
4,NC(=O)c1cc[n+](CC2=C(C(=O)O)N3C(=O)[C@@H](NC(=O)[C@@H](c4ccccc4)S(=O)(=O)[O-])[C@H]3SC2)cc1 [Cefsulodin sodium salt],−1.1155
5,CC(C)(O/N=C(\C(=O)N[C@@H]1C(=O)N2C(C(=O)[O-])=C(C[n+]3ccccc3)CS[C@H]12)c1csc(N)n1)C(=O)O [Ceftazidime pentahydrate],0.00611
6,CO/N=C(\C(=O)N[C@@H]1C(=O)N2C(C(=O)O)=C(COC(N)=O)CS[C@H]12)c1ccco1 [Cefuroxime sodium salt],0.8177
7,CC[C@H]1CN2CCc3cc(OC)c(OC)cc3[C@@H]2C[C@@H]1C[C@H]1NCCc2cc(O)c(OC)cc21.Cl.Cl.O.O.O.O.O.O.O [Cephaeline dihydrochloride heptahydrate],26.5614
8,CC1=C(C(=O)O)N2C(=O)[C@@H](NC(=O)[C@H](N)c3ccccc3)[C@H]2SC1 [Cephalexin monohydrate],−1.1486
9,"CC(=O)OCC1=C(C(=O)O)N2C(=O)[C@@H](N)[C@H]2SC1 [Cephalosporanic acid, 7-amino]",0.3224
10,CC(=O)OCC1=C(C(=O)O)N2C(=O)[C@@H](NC(=O)Cc3cccs3)[C@H]2SC1 [Cephalothin sodium salt],0.8566
11,O=C(O)COCCN1CCN(C(c2ccccc2)c2ccc(Cl)cc2)CC1 (stereo not drawn) [Cetirizine dihydrochloride],−0.3764
12,CN1Cc2c(ccc3c2OCO3)C2C(O)Cc3cc4c(cc3C21)OCO4 (stereo not drawn) [Chelidonine (+)],16.9912
13,C[C@H](CCC(=O)O)[C@H]1CC[C@H]2[C@@H]3[C@H](O)C[C@@H]4C[C@H](O)CC[C@]4(C)[C@H]3CC[C@]12C [Chenodiol],−1.6767
14,COc1cc(-c2ccc(N=Nc3ccc4c(S(=O)(=O)[O-])cc(S(=O)(=O)[O-])c(N)c4c3O)c(OC)c2)ccc1N=Nc1ccc2c(S(=O)(=O)[O-])cc(S(=O)(=O)[O-])c(N)c2c1O.[Na+].[Na+].[Na+].[Na+] [Chicago sky blue 6B],0.6958
15,O=C(O)CCCc1ccc(N(CCCl)CCCl)cc1 [Chlorambucil],−0.8818
16,O=C(N[C@H](CO)[C@H](O)c1ccc([N+](=O)[O-])cc1)C(Cl)Cl [Chloramphenicol],1.318
17,[H]/N=C(\N/C(=N/[H])NCCCCCCNC(=N)NC(=N)Nc1ccc(Cl)cc1)Nc1ccc(Cl)cc1 [Chlorhexidine],24.4911
18,CN1C(=O)CCS(=O)(=O)C1c1ccc(Cl)cc1 (stereo not drawn) [Chlormezanone],−0.6525
19,O=C(/C=C/c1ccc(O)c(O)c1)O[C@@H]1C[C@](O)(C(=O)O)C[C@@H](O)[C@H]1O [Chlorogenic acid],0.1486
20,CN(C)CCN(Cc1ccc(Cl)cc1)c1ccccn1 [Chloropyramine hydrochloride],0.124
21,NS(=O)(=O)c1cc2c(cc1Cl)N=CNS2(=O)=O [Chlorothiazide],−0.1987
22,COc1ccc(C(Cl)=C(c2ccc(OC)cc2)c2ccc(OC)cc2)cc1 [Chlorotrianisene],−0.6534
23,CN(C)CCC(c1ccc(Cl)cc1)c1ccccn1 (stereo not drawn) [Chlorpheniramine maleate],−0.5399
24,NC(=O)OCC(O)COc1ccc(Cl)cc1 (stereo not drawn) [Chlorphensin carbamate],0.4583
